Tests used:
Test in all cases: Large panel kinase profiling
Type in all cases: biochemical
Details in all cases: 1 μM test article, 1 mM ATP
AURKC/AURC = target: T1, AURKC/AURC (Homo sapiens, UniProt Q9UQB9)
T1 sequence (Q9UQB9 1-309): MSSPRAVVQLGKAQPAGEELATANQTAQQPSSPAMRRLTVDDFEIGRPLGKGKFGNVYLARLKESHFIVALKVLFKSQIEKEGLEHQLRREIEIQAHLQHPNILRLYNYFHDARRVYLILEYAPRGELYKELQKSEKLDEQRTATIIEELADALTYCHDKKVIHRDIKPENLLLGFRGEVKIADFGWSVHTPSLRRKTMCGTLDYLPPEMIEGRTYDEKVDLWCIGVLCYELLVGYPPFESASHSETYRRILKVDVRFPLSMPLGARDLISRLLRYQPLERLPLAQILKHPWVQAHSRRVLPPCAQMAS
In short: (§1)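 Continuous-read kinase assay: chelation-sensor peptide, 1 mM ATP, compound at 1 μM. Plates kept at 30° C.; fluorescence sampled at 1-min intervals (360/485 nm).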

EPHB1 = target: T2, EPHB1 (Homo sapiens, UniProt P54762)
T2 sequence (P54762 18-984): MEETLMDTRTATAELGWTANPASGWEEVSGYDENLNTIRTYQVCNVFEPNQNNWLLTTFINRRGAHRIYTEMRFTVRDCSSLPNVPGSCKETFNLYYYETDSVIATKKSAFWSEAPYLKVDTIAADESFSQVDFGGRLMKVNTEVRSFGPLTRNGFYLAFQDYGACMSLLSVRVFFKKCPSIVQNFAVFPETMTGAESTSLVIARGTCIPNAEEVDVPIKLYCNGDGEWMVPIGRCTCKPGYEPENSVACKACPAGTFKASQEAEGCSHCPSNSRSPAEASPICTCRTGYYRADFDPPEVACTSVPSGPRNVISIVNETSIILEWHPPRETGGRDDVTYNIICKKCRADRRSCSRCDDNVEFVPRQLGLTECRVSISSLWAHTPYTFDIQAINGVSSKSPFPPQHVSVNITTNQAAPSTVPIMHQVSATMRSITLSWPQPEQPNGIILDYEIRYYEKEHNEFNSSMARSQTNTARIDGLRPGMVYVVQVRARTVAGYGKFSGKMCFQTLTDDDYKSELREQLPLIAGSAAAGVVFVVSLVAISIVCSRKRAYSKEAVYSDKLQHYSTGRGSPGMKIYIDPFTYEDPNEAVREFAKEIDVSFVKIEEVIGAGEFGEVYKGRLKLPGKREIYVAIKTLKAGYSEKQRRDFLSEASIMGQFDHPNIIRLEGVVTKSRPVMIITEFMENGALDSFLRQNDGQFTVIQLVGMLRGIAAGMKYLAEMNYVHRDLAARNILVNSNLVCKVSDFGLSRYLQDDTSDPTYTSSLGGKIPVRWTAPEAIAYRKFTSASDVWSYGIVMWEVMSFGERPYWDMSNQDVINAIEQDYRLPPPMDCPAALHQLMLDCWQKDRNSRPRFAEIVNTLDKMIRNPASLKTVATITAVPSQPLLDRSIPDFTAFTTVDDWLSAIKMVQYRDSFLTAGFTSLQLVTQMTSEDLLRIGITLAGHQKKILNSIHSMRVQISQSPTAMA
In short: as §1

MAP3K3 = target: T3, MAP3K3 (Homo sapiens, UniProt Q99759)
T3 construct: AssayQuant Technologies, Inc. (service provider)
T3 sequence (Q99759 1-626): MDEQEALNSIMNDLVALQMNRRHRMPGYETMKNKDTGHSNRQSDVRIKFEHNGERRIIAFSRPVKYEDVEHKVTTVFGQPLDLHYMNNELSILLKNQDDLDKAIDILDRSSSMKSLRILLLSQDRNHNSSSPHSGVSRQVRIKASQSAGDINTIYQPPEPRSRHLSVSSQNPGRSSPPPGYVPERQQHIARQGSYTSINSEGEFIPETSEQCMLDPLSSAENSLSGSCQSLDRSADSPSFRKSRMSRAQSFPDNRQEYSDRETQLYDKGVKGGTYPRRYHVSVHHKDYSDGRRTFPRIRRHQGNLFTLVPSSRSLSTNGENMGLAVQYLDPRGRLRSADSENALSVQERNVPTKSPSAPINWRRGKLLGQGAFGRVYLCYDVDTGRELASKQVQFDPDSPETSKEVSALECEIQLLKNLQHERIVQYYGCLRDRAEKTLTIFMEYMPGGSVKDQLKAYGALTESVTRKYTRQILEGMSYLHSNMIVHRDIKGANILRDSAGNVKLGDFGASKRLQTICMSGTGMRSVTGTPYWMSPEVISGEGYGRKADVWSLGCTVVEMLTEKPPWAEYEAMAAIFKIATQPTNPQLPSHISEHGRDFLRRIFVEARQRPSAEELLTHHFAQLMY
In short: as §1

STK17A/DRAK1 = target: T4, STK17A/DRAK1 (Homo sapiens, UniProt Q9UEE5)
T4 construct: AssayQuant Technologies, Inc. (contract assay)
T4 sequence (Q9UEE5 1-414): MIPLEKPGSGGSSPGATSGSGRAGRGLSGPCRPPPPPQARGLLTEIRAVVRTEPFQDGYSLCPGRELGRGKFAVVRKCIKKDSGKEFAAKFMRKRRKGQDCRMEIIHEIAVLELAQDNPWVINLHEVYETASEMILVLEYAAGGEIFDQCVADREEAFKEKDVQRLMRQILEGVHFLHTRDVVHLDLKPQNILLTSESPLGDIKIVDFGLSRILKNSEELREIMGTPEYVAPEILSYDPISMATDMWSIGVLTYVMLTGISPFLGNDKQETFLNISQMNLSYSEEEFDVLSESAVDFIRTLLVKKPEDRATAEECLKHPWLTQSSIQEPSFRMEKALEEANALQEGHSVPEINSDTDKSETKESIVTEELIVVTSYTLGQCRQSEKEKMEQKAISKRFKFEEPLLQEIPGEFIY
In short: as §1

Row | Compound | inhibition at 1 µM (AURKC/AURC) | inhibition at 1 µM (EPHB1) | inhibition at 1 µM (MAP3K3) | inhibition at 1 µM (STK17A/DRAK1)
1 | C=CC(=O)N1CCCC(c2c(F)cc(C(N)=O)c3[nH]c4c(c23)CCCCC4)C1 (single isomer, unassigned) [Compound 5-6] | -8.9% | 14.5% | -7% | 22.4%
2 | C=CC(=O)N1CCC[C@@H](c2c(F)cc(C(N)=O)c3[nH]c4c(c23)CC2(CC4)CC2)C1 [Compound 6-2, (S)-5-(1-acryloylpiperidin-3-yl)-6-fluoro-1,2,4,9-tetrahydrospiro[carbazole-3,1′-cyclopropane]-8-carboxamide] | -2% | 12.4% | -3.6% | -33.9%
3 | C=CC(=O)N1CCC[C@@H](c2c(F)cc(C(N)=O)c3[nH]c4c(c23)CCC4)C1 [Compound 10-2, (S)-8-(1-acryloylpiperidin-3-yl)-7-fluoro-1,2,3,4-tetrahydrocyclo-penta[b]indole-5-carboxamide] | 16.7% | -3.1% | 19.9% | -28%
